# Source: US8153818B2, “Triazolyl phenyl benzenesulfonamides” (ChemoCentryx, Inc., priority 2006, dated 2012)
# How the values were obtained:
# CCR9 = molecular target: T1, CCR9 (Homo sapiens, UniProt P51686); assay: CCR9 activity in one of the chemotaxis, binding or calcium mobilization assays; assay type: cell-based; details: assay not specified per compound
# T1 construct: chemokine expressing cells (such as THP-1 cells for CCR2 assay or MOLT-4 cells for CCR9 assay); host or cells: MOLT-4
# T1 sequence (P51686 1-369): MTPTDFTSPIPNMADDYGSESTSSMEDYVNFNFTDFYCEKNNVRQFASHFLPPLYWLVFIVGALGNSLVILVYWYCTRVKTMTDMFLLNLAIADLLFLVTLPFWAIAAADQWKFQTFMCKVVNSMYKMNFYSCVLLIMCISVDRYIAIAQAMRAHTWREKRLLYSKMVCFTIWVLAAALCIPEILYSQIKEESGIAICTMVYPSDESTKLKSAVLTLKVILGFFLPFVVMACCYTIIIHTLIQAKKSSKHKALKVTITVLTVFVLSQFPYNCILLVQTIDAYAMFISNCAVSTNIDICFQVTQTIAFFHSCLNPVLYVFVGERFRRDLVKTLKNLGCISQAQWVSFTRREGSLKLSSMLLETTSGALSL
# Summary of the method: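 Chemotaxis: THP-1 cells (CCR2, 0.1 nM MCP-1, 90 min) or MOLT-4 cells (CCR9, 50 nM TECK, 150 min) preincubated with compound 15 min RT, migration at 37 °C through 5-μm membrane, CyQUANT read; IC50 by nonlinear regression. Calcium flux: Fluo-4-loaded cells, 0.1 nM MCP-1 or 25 nM TECK. Binding: THP-1, ~50 pM [125I]MCP-1, 3 h, 4 °C.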
# CCR2 = molecular target: T2, CCR2 (Homo sapiens, UniProt P41597); assay: CCR2 activity in one of the chemotaxis, binding or calcium mobilization assays; assay type: cell-based; details: assay not specified per compound
# T2 construct: CCR2 expressing THP-1 cells were centrifuged and resuspended in assay buffer; host or cells: THP-1
# T2 sequence (P41597 1-360 isoform P41597-2): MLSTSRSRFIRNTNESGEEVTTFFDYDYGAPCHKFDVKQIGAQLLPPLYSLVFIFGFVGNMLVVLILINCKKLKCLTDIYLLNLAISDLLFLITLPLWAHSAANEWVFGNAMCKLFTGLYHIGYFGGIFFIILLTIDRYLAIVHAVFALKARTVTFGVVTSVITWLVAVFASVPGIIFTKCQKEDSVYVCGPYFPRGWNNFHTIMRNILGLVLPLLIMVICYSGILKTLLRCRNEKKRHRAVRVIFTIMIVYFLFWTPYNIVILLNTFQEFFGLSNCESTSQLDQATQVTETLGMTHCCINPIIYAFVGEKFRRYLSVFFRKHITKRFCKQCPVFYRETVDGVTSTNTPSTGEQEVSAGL
# Method: Conventional migration assay was used to determine the efficacy of potential receptor antagonists in blocking migration mediated through chemokines (such as CCR2 or CCR9). This assay was routinely performed using the ChemoTX® microchamber system with a 5-μm pore-sized polycarbonate membrane. To begin such an assay, chemokine expressing cells (such as THP-1 cells for CCR2 assay or MOLT-4 cells for CCR9 assay) were harvested by centrifugation of cell suspension at 1000 RPM on a GS-6R Beckman centrifuge. The cell pellet was resuspended in chemotaxis buffer (HBSS with 0.1% BSA) at 10×10^6 cells/mL for CCR2 assay (5×10^6 cells/mL for CCR9 assay). Test compounds at desired concentrations were prepared from 10 mM stock solutions by serial dilutions in chemotaxis buffer. An equal volume of cells and compounds were mixed and incubated at room temperature for 15 minutes. Afterwards, 20 μL of the mixture was transferred onto the porous membrane of a migration microchamber, with 29 μL of chemokine ligand (0.1 nM chemokine MCP-1 protein for CCR2 assay or […] chemokine TECK protein for CCR9 assay) placed at the lower chamber. Following an incubation at 37° C. (90-minute for CCR2; 150-minute for CCR9), during which cells migrated against the chemokine gradient, the assay was terminated by removing the cell drops from atop the filter. To quantify cells migrated across the membrane, 5 μL of 7×CyQUANT® solution was added to each well in the lower chamber, and the fluorescence signal measured on a Spectrafluor Plus fluorescence plate reader (TECAN, Durham, N.C.). The degree of inhibition was determined by comparing migration signals between compound-treated and untreated cells. IC50 calculation was further performed by non-linear squares regression analysis using Graphpad Prism (Graphpad Software, San Diego, Calif.).
# Calcium flux assay measures an increase in intracellular calcium following ligand-induced receptor activation. In the screen of chemokine antagonists, it was used as a secondary assay carried out on a FLIPR® machine (Molecular Devices, Mountain View, Calif.). To begin an assay, chemokine expressing cells (such as THP-1 cells for CCR2 assay or MOLT-4 cells for CCR9 assay) were harvested by centrifugation of cell suspension, and resuspended to 1.5×10^6 cells/mL in HBSS (with 1% fetal calf serum). Cells were then labeled with a calcium indicator dye Fluo-4 AM for 45 minutes at 37° C. with gentle shaking. Following incubation, cells were pelletted, washed once with HBSS and resuspended in the same buffer at a density of 1.6×10^6 cells/mL. One hundred microliters of labeled cells were mixed with 10 μL of test compound at the appropriate concentrations on an assay plate. Chemokine protein (MCP-1 at a final concentration of 0.1 nM for CCR2 assay or TECK at a final concentration of 25 nM for CCR9 assay) to activate the receptor. The degree of inhibition was determined by comparing calcium signals between compound-treated and untreated cells. IC50 calculations were further performed by non-linear squares regression analysis using Graphpad Prism (Graphpad Software, San Diego, Calif.).
# Ligand binding assay was used to determine the ability of potential CCR2 antagonists to block the interaction between CCR2 and its ligand MCP-1. CCR2 expressing THP-1 cells were centrifuged and resuspended in assay buffer (20 mM HEPES pH 7.1, 140 mM NaCl, 1 mM CaCl2, 5 mM MgCl2, and with 0.2% bovine serum albumin) to a concentration of 2.2×10^5 cells/mL. Binding assays were set up as follows. […]
Structure (SMILES),IC50 (CCR9) [µM],IC50 (CCR2) [µM]
"COCCN(C)Cc1nnc(-c2cc(Cl)c(F)cc2NS(=O)(=O)c2ccc(C(C)(C)C)cc2)n1C [Compound 149, 4-tert-butyl-N-(4-chloro-5-fluoro-2-(5-(((2-methoxyethyl)(methyl)amino)methyl)-4-methyl-4H-1,2,4-triazol-3-yl)phenyl)benzenesulfonamide]",< 1,
CC(C)(C)c1ccc(S(=O)(=O)Nc2ccc(Cl)cc2-c2nncn2[C@H]2CCN(S(C)(=O)=O)C2)cc1 [Compound 153],< 1,
Cc1nnc(-c2cc(Cl)ccc2NS(=O)(=O)c2ccc(C(C)(C)C)cc2)n1C1CCN(C)CC1 [Compound 155],< 1,
"CC(C)(C)c1ccc(S(=O)(=O)Nc2ccc(Cl)cc2-c2nnc3ncccn23)cc1 [Compound 156, N-(2-([1,2,4]triazolo[4,3-a]pyrimidin-3-yl)-4-chlorophenyl)-4-tert-butylbenzenesulfonamide]",< 1,
O=S(=O)(Nc1cc(Cl)ccc1-c1nncn1-c1cc[nH]n1)c1ccc(Cl)c(C(F)(F)F)c1 [Compound 157],,< 1
Cc1nnc(-c2ccc(Cl)cc2NS(=O)(=O)c2ccc(Cl)c(C(F)(F)F)c2)n1-c1cc[nH]n1 [Compound 158],,< 1
"O=S(=O)(Nc1cc(Cl)ccc1-c1nncn1-c1ccccc1)c1ccc(Cl)c(C(F)(F)F)c1 [Compound 159, 4-chloro-N-(5-chloro-2-(4-phenyl-4H-1,2,4-triazol-3-yl)phenyl)-3-(trifluoromethyl)benzenesulfonamide]",,< 1
"O=S(=O)(Nc1cc(Cl)c(F)cc1-c1nncn1-c1cc[nH]n1)c1ccc(Cl)c(C(F)(F)F)c1 [Compound 160, N-(2-(4-(1H-pyrazol-3-yl)-4H-1,2,4-triazol-3-yl)-5-chloro-4-fluorophenyl)-4-chloro-3-(trifluoromethyl)benzenesulfonamide]",,< 1
"NC(=O)c1nnc(-c2cc(F)c(Cl)cc2NS(=O)(=O)c2ccc(Cl)c(C(F)(F)F)c2)n1-c1cc[nH]n1 [Compound 161, 5-(4-chloro-2-(4-chloro-3-(trifluoromethyl)phenylsulfonamido)-5-fluorophenyl)-4-(1H-pyrazol-3-yl)-4H-1,2,4-triazole-3-carboxamide]",,< 1

# Now from value to compound:
IC50 (CCR9) [µM],IC50 (CCR2) [µM],Structure (SMILES)
< 1,,CC(C)n1c(-c2cc(Cl)ccc2NS(=O)(=O)c2ccc(C(C)(C)C)cc2)nnc1C1(C)CCOCC1 [Compound 150]
< 1,,CN1CCN(Cc2nnc(-c3cc(Cl)c(F)cc3NS(=O)(=O)c3ccc(C(C)(C)C)cc3)n2C)CC1 [Compound 151]
< 1,,Cn1c(CNC2CCOCC2)nnc1-c1cc(Cl)c(F)cc1NS(=O)(=O)c1ccc(C(C)(C)C)cc1 [Compound 152]
< 1,,CC(C)n1c(CN2CCOCC2)nnc1-c1cc(Cl)c(F)cc1NS(=O)(=O)c1ccc(C(C)(C)C)cc1 [Compound 154]
